According to the NIST ThermoML archive (doi:10.1021/je0602925):
± gives the expanded uncertainty stated by the source.

Test: activity coefficient (dimensionless); of the first substance listed, at infinite dilution; xn = mol fraction of the nth substance listed
Details: Liquid, Chromatography, x1 = 0

Compound: C#CCCCC [1-hexyne] + CCCCCCCCCCCCCC[P+](CCCCCC)(CCCCCC)CCCCCC.F[B-](F)(F)F
- activity coefficient (308.15 K): 0.345 ± 0.032
- activity coefficient (318.15 K): 0.358 ± 0.033
- activity coefficient (328.15 K): 0.366 ± 0.033
